Source: patent US20250136577A1, “HETEROCYCLIC DERIVATIVES AS MALT1 INHIBITORS” (C4X Discovery Limited, priority 2022, published 2025)

target: FL hMALT1 enzyme (Homo sapiens (Human), UniProt Q9UDY8); test: MALT1 Protease Assay 2 (Assay 2), higher sensitivity, cleavage of fluorogenic tetrapeptide substrate; format: biochemical; conditions: FL hMALT1 1-10 nM, Ac-LVSR-AMC 100 μM, 0.7 M sodium citrate, 30 min preincubation, 60 min read
Protocol: MALT1 Protease Assay 2 (Assay 2)
(§1) MALT1 protease activity was assessed in vitro by measuring the cleavage of a fluorogenic tetrapeptide substrate.
For a higher sensitivity assay, commercially available FL hMALT1 enzyme (Abcam, 1-10 nM) was incubated with substrate (Ac-LVSR-AMC, 100 μM) in reaction buffer comprising 50 mM HEPES (pH7.0), 25 mM KCl, 0.1% (v/v) CHAPS, 1 mM TCEP and 0.7 M sodium citrate.
(§2) Test compounds dissolved in DMSO were dispensed into assay plates (384-well, black, shallow ProxiPlates). 7 μl enzyme solution was added and incubated at room temperature for 30 minutes to allow compound binding to occur. 2 μl substrate solution was then added and the fluorescence (excitation 360 nm, emission 460 nm) read every 15 minutes using a suitable plate reader. Final assay DMSO concentration was 1%. Linearity over 60 minutes was confirmed, and assay signal was calculated by subtracting raw counts at time 0 from those at 60 minutes. % inhibition was calculated for each well, using no enzyme for 100% inhibition controls and no compound for 0% inhibition controls. IC50 values were calculated using GraphPad Prism using a 4-parameter non-linear regression curve fit.

Sequence of FL hMALT1 enzyme (Q9UDY8 whole entry): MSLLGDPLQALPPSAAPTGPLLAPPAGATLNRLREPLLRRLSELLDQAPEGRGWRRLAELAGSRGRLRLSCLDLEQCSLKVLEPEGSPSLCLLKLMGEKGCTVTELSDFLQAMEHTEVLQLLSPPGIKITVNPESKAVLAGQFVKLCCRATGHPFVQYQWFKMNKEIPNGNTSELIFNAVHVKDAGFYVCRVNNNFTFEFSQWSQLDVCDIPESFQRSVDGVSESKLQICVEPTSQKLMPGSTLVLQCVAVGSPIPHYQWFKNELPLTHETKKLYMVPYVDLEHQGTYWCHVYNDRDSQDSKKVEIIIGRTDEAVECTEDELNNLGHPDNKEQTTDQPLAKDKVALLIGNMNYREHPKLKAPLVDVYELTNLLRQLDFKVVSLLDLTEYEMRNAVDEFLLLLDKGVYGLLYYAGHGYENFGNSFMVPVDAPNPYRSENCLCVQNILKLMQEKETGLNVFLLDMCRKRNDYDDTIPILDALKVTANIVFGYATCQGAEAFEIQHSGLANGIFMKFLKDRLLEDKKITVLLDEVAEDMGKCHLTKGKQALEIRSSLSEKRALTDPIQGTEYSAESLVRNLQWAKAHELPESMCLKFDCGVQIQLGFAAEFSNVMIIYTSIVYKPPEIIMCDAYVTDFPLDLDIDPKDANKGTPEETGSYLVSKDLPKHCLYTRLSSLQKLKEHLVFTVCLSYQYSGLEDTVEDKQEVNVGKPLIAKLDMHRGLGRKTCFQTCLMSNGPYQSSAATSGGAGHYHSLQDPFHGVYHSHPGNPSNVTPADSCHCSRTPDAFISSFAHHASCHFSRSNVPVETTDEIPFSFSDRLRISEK

`O=C(Nc1cnc(-n2nccn2)c(Cl)c1)N1CCN(C2CCOCC2)c2c(Br)cncc21` [Example 33, 8-Bromo-N-(5-chloro-6-(2H-1,2,3-triazol-2-yl)pyridin-3-yl)-1-(tetrahydro-2H-pyran-4-yl)-2,3-dihydropyrido[3,4-b]pyrazine-4 (1H)-carboxamide] and `O=C(Nc1cnc(-n2nccn2)c(Cl)c1)N1CC2CCCCN2c2c(Br)cncc21` (stereo not shown) [Example 28, 1-Bromo-N-(5-chloro-6-(2H-1,2,3-triazol-2-yl)pyridin-3-yl)-6,6a,7,8,9,10-hexahydro-5H-dipyrido[1,2-a: 3′,4′-e] pyrazine-5-carboxamide] are within 1.5-fold of each other in IC50: 1500 nM for the first, 1100 nM for the second.

`O=C(Nc1cnc(-n2nccn2)c(Cl)c1)N1CCCc2c(Br)cncc21` [Example 17, 5-Bromo-N-(5-chloro-6-(2H-1,2,3-triazol-2-yl)pyridin-3-yl)-3,4-dihydro-1,7-naphthyridine-1 (2H)-carboxamide] and `N#CC1Cc2c(Br)cncc2N(C(=O)Nc2cnc(-n3nccn3)c(Cl)c2)C1` (stereo not shown) [Example 58, 5-Bromo-N-(5-chloro-6-(2H-1,2,3-triazol-2-yl)pyridin-3-yl)-3-cyano-3,4-dihydro-1,7-naphthyridine-1 (2H)-carboxamide] are within 1.5-fold of each other in IC50: 1500 nM for the first, 1290 nM for the second.

`CC1CN(C(=O)Nc2cnc(-n3nccn3)c(Cl)c2)c2cncc(Br)c2O1` (single isomer, unassigned) [Example 45, 8-Bromo-N-(5-chloro-6-(2H-1,2,3-triazol-2-yl)pyridin-3-yl)-2-methyl-2,3-dihydro-4H-pyrido[4,3-b][1,4]oxazine-4-carboxamide] and `O=C(Nc1cnc(-n2nccn2)c(Cl)c1)N1CC(C2CC2)Oc2c(Br)cncc21` (single isomer, unassigned) [Example 50, 8-Bromo-N-(5-chloro-6-(2H-1,2,3-triazol-2-yl)pyridin-3-yl)-2-cyclopropyl-2,3-dihydro-4H-pyrido[4,3-b][1,4]oxazine-4-carboxamide] are within 1.5-fold of each other in IC50: 200 nM for the first, 240 nM for the second.

Going from `Cc1ncc2c(c1C#N)OC(C(F)(F)F)CN2C(=O)Nc1cnc(-n2nccn2)c(C(F)(F)F)c1` (single isomer, unassigned) [Example 64, N-(6-(2H-1,2,3-triazol-2-yl)-5-(trifluoromethyl)pyridin-3-yl)-8-cyano-7-methyl-2-(trifluoromethyl)-2,3-dihydro-4H-pyrido[4,3-b][1,4]oxazine-4-carboxamide] to `Cc1ncc2c(c1C#N)OC(C(F)(F)F)CN2C(=O)Nc1cnc(-n2nccn2)c(Cl)c1` (single isomer, unassigned) [Example 52, N-(5-Chloro-6-(2H-1,2,3-triazol-2-yl)pyridin-3-yl)-8-cyano-7-methyl-2-(trifluoromethyl)-2,3-dihydro-4H-pyrido[4,3-b][1,4]oxazine-4-carboxamide], the IC50 rises from 2120 nM to 7600 nM (3.6-fold).

First: Cc1ncc2c(c1C#N)OC(C(F)(F)F)CN2C(=O)Nc1ccnc(C(F)(F)F)c1 (stereo not shown) [Example 59, 8-Cyano-7-methyl-2-(trifluoromethyl)-N-(2-(trifluoromethyl)pyridin-4-yl)-2,3-dihydro-4H-pyrido[4,3-b][1,4]oxazine-4-carboxamide]
Second: Cc1ncc2c(c1C#N)OC(C(F)(F)F)CN2C(=O)Nc1cnc(-n2nccn2)c(C(F)(F)F)c1 (single isomer, unassigned) [Example 65, N-(6-(2H-1,2,3-triazol-2-yl)-5-(trifluoromethyl)pyridin-3-yl)-8-cyano-7-methyl-2-(trifluoromethyl)-2,3-dihydro-4H-pyrido[4,3-b][1,4]oxazine-4-carboxamide]
The IC50 of the first is 48-fold higher: 820 nM for the first, 17 nM for the second. The second is the more potent here.

Compared with `O=C(Nc1cnc(-n2nccn2)c(C(F)(F)F)c1)N1CCCc2c(-c3nccs3)cccc21` [Example 10, N-(6-(2H-1,2,3-Triazol-2-yl)-5-(trifluoromethyl)pyridin-3-yl)-5-(thiazol-2-yl)-3,4-dihydroquinoline-1 (2H)-carboxamide], `Cc1ncc2c(c1Br)OC(C(F)(F)F)CN2C(=O)Nc1cnc(-n2nccn2)c(Cl)c1` (single isomer, unassigned) [Example 42, 8-Bromo-N-(5-chloro-6-(2H-1,2,3-triazol-2-yl)pyridin-3-yl)-7-methyl-2-(trifluoromethyl)-2,3-dihydro-4H-pyrido[4,3-b][1,4]oxazine-4-carboxamide] is 3.4-fold higher in IC50: 1000 nM for the first, 3400 nM for the second.

`Cc1ncc2c(c1C#N)OC(C(F)(F)F)CN2C(=O)Nc1cnc(-n2nccn2)c(C#N)c1` (single isomer, unassigned) [Example 62, 8-Cyano-N-(5-cyano-6-(2H-1,2,3-triazol-2-yl)pyridin-3-yl)-7-methyl-2-(trifluoromethyl)-2,3-dihydro-4H-pyrido[4,3-b][1,4]oxazine-4-carboxamide] and `N#Cc1cncc2c1OC(C(F)(F)F)CN2C(=O)Nc1cnc(-n2nccn2)c(Cl)c1` (single isomer, unassigned) [Example 54, N-(5-Chloro-6-(2H-1,2,3-triazol-2-yl)pyridin-3-yl)-8-cyano-2-(trifluoromethyl)-2,3-dihydro-4H-pyrido[4,3-b][1,4]oxazine-4-carboxamide] are within 1.5-fold of each other in IC50: 6500 nM for the first, 8200 nM for the second.

`O=C(Nc1cnc(-n2nccn2)c(Cl)c1)N1CC(C2CC2)Oc2c(Br)cncc21` (single isomer, unassigned) [Example 51, 8-Bromo-N-(5-chloro-6-(2H-1,2,3-triazol-2-yl)pyridin-3-yl)-2-cyclopropyl-2,3-dihydro-4H-pyrido[4,3-b][1,4]oxazine-4-carboxamide] and `CC1CN(C(=O)Nc2cnc(-n3nccn3)c(Cl)c2)c2cncc(Br)c2O1` (single isomer, unassigned) [Example 44, 8-Bromo-N-(5-chloro-6-(2H-1,2,3-triazol-2-yl)pyridin-3-yl)-2-methyl-2,3-dihydro-4H-pyrido[4,3-b][1,4]oxazine-4-carboxamide] are within 1.5-fold of each other in IC50: 250 nM for the first, 330 nM for the second.

Going from `COc1cncc2c1OC(C(F)(F)F)CN2C(=O)Nc1cnc(-n2nccn2)c(Cl)c1` (single isomer, unassigned) [Example 57, N-(5-Chloro-6-(2H-1,2,3-triazol-2-yl)pyridin-3-yl)-8-methoxy-2-(trifluoromethyl)-2,3-dihydro-4H-pyrido[4,3-b][1,4]oxazine-4-carboxamide] to `Cc1ncc2c(c1C#N)OC(C(F)(F)F)CN2C(=O)Nc1cnc(-n2nccn2)c(C#N)c1` (single isomer, unassigned) [Example 63, 8-Cyano-N-(5-cyano-6-(2H-1,2,3-triazol-2-yl)pyridin-3-yl)-7-methyl-2-(trifluoromethyl)-2,3-dihydro-4H-pyrido[4,3-b][1,4]oxazine-4-carboxamide], the IC50 falls from 170 nM to 104 nM (1.6-fold).

Compared with `Cc1ncc2c(c1C#N)OC(C(F)(F)F)CN2C(=O)Nc1cnc(C(=O)N(C)C2CC2)c(C(F)F)c1` (single isomer, unassigned) [Example 67, 8-Cyano-N-(6-(cyclopropyl(methyl)carbamoyl)-5-(difluoromethyl)pyridin-3-yl)-7-methyl-2-(trifluoromethyl)-2,3-dihydro-4H-pyrido[4,3-b][1,4]oxazine-4-carboxamide], `Cc1ncc2c(c1C#N)OC(C(F)(F)F)CN2C(=O)Nc1cnc(OC(F)F)c(Cl)c1` (single isomer, unassigned) [Example 60, N-(5-Chloro-6-(difluoromethoxy)pyridin-3-yl)-8-cyano-7-methyl-2-(trifluoromethyl)-2,3-dihydro-4H-pyrido[4,3-b][1,4]oxazine-4-carboxamide] is 26-fold higher in IC50: 146 nM for the first, 3820 nM for the second. The first is the more potent here.

First: COc1cncc2c1OC(C(F)(F)F)CN2C(=O)Nc1cnc(-n2nccn2)c(Cl)c1 (single isomer, unassigned) [Example 56, N-(5-Chloro-6-(2H-1,2,3-triazol-2-yl)pyridin-3-yl)-8-methoxy-2-(trifluoromethyl)-2,3-dihydro-4H-pyrido[4,3-b][1,4]oxazine-4-carboxamide]
Second: Cc1ncc2c(c1C#N)OC(C(F)(F)F)CN2C(=O)Nc1cnc(C(=O)N(C)C2CC2)c(C(F)F)c1 (single isomer, unassigned) [Example 66, 8-Cyano-N-(6-(cyclopropyl(methyl)carbamoyl)-5-(difluoromethyl)pyridin-3-yl)-7-methyl-2-(trifluoromethyl)-2,3-dihydro-4H-pyrido[4,3-b][1,4]oxazine-4-carboxamide]
The IC50 of the first is 1.8-fold lower: 5100 nM for the first, 9100 nM for the second. The first is the more potent here.

target: MALT1-GS-Ub (6-His-hMALT-1 residues 339-715 fused to ubiquitin) (Homo sapiens (Human), UniProt Q9UDY8); test: MALT1 Protease Assay 1 (Assay 1), cleavage of fluorogenic tetrapeptide substrate; format: biochemical; conditions: MALT1-GS-Ub 300-600 nM, Ac-LVSR-AMC 100 μM, 30 min preincubation, 60 min read
Sequence (Q9UDY8 other isoform, or with tags, fused parts or gaps): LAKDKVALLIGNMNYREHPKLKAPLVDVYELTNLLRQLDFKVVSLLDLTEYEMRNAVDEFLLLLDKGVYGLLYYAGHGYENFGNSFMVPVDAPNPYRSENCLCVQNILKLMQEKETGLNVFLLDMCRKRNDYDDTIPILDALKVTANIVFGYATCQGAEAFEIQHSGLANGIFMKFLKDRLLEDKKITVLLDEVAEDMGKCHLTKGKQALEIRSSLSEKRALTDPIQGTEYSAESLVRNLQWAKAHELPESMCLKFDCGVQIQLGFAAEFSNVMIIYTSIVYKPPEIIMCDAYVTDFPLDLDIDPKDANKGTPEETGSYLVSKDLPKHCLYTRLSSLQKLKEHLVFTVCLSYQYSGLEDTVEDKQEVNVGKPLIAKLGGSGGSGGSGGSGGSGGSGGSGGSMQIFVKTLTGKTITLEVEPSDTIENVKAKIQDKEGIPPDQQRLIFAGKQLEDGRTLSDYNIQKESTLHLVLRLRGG
Protocol: MALT1 Protease Assay 1 (Assay 1)
as §1
A protein (MALT1-GS-Ub) comprising 6-His-hMALT-1 (residues 339-715), fused to ubiquitin with an 8× GGS linker, was expressed in E. coli, and purified using chitin resin to remove contaminants followed by affinity chromatography purification and size-exclusion chromatography, according to standard protocols.
Briefly, MALT1-GS-Ub (300-600 nM) was incubated with substrate (Ac-LVSR-AMC, 100 μM) in reaction buffer comprising 50 mM HEPES (pH7.0), 25 mM KCl, 0.1% (v/v) CHAPS and 1 mM TCEP.
as §2

`O=C(Nc1cnc(-n2nccn2)c(Cl)c1)N1CCN(C2CCOCC2)c2c(Br)cncc21` [Example 33, 8-Bromo-N-(5-chloro-6-(2H-1,2,3-triazol-2-yl)pyridin-3-yl)-1-(tetrahydro-2H-pyran-4-yl)-2,3-dihydropyrido[3,4-b]pyrazine-4 (1H)-carboxamide] and `O=C(Nc1cnc(-n2nccn2)c(Cl)c1)N1CC2CCCCN2c2c(Br)cncc21` (stereo not shown) [Example 28, 1-Bromo-N-(5-chloro-6-(2H-1,2,3-triazol-2-yl)pyridin-3-yl)-6,6a,7,8,9,10-hexahydro-5H-dipyrido[1,2-a: 3′,4′-e] pyrazine-5-carboxamide] are within 1.5-fold of each other in IC50: 7.6 µM for the first, 7.3 µM for the second.

Going from `O=C(Nc1cnc(-n2nccn2)c(Cl)c1)N1CCCc2c(Br)cncc21` [Example 17, 5-Bromo-N-(5-chloro-6-(2H-1,2,3-triazol-2-yl)pyridin-3-yl)-3,4-dihydro-1,7-naphthyridine-1 (2H)-carboxamide] to `O=C(Nc1cnc(-n2nccn2)c(Cl)c1)N1CCCc2c(Br)cccc21` [Example 1, 5-Bromo-N-(5-chloro-6-(2H-1,2,3-triazol-2-yl)pyridin-3-yl)-3,4-dihydroquinoline-1 (2H)-carboxamide], the IC50 rises from 0.5 µM to 4.5 µM (9-fold).

First: O=C(Nc1cnc(-n2nccn2)c(C(F)(F)F)c1)N1CCCc2c(-c3nccs3)cccc21 [Example 10, N-(6-(2H-1,2,3-Triazol-2-yl)-5-(trifluoromethyl)pyridin-3-yl)-5-(thiazol-2-yl)-3,4-dihydroquinoline-1 (2H)-carboxamide]
Second: O=C(Nc1cnc(-n2nccn2)c(C(F)(F)F)c1)N1CCCc2c(Br)cccc21 [Example 2, N-(6-(2H-1,2,3-Triazol-2-yl)-5-(trifluoromethyl)pyridin-3-yl)-5-bromo-3,4-dihydroquinoline-1 (2H)-carboxamide]
The IC50 of the first is 2.1-fold lower: 1.5 µM for the first, 3.2 µM for the second. The first is the more potent here.
